Here are results for eight molecules from PMC9865212, “Compounds from the Petroleum Ether Extract of Wedelia chinensis with Cytotoxic, Anticholinesterase, Antioxidant, and Antimicrobial Activities” (Molecules, 2023).

Converted amounts (≈) assume the structure as drawn. Read-outs that look alike come from different tables or passages of the source.

One series deals with Escherichia coli. The series is described as follows: microbe, parasite or virus in culture. It is filed as cell-based, Escherichia coli (FPFC-1407).
Another series concerns Shigella sonnei. The series is described as follows: microbe, parasite or virus in culture. It is filed as cell-based, Shigella sonnei (AJ-8992).
The target in series [1] is T1, AChE enzyme from mice brain (Mus musculus, UniProt P21836).
T1 construct: We used the prepared AChE enzyme from mice brain; from tissue; host or cells: mouse brain
T1 sequence (P21836 32-614): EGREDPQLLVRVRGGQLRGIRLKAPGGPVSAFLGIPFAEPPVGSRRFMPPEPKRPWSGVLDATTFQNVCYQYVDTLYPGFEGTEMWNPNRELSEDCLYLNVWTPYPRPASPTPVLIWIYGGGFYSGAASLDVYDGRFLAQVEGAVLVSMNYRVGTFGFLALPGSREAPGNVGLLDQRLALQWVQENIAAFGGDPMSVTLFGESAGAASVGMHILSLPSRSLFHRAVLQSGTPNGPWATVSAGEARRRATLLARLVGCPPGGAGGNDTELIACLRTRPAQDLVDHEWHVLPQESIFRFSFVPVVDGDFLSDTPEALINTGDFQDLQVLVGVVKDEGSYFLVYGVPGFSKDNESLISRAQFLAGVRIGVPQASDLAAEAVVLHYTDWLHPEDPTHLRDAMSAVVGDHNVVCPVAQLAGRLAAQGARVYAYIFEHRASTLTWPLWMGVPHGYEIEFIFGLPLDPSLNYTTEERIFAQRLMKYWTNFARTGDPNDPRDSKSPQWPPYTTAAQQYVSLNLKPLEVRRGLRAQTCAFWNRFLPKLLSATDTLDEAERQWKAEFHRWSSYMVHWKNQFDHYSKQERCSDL
The series is described as follows: biochemical. The method, then:
(§1) We used the prepared AChE enzyme from mice brain and BChE enzyme from human blood of a volunteer that has been mentioned earlier. Various concentrations of the compound (500 μL) were mixed with the enzyme solution (500 μL) and incubated at 37 °C for 30 min. A reaction mixture was prepared that contained 0.5 mM acetylthiocholine/butyrylthiocholine and 1 mM DTNB in 50 mM sodium phosphate buffer (pH 8.0). To the reaction mixture (3.5 mL), the enzyme solution containing compound was added, incubated, and immediately the absorbance of the solution was determined at 412 nm. […] The percent inhibition was calculated by dividing the difference of sample absorbance from control with control absorbance × 100.

The target of series [2] is T2, BChE enzyme from human blood (Homo sapiens, UniProt P06276).
T2 construct: BChE enzyme from human blood of a volunteer; from tissue; host or cells: human blood of a volunteer
T2 sequence (P06276 29-602): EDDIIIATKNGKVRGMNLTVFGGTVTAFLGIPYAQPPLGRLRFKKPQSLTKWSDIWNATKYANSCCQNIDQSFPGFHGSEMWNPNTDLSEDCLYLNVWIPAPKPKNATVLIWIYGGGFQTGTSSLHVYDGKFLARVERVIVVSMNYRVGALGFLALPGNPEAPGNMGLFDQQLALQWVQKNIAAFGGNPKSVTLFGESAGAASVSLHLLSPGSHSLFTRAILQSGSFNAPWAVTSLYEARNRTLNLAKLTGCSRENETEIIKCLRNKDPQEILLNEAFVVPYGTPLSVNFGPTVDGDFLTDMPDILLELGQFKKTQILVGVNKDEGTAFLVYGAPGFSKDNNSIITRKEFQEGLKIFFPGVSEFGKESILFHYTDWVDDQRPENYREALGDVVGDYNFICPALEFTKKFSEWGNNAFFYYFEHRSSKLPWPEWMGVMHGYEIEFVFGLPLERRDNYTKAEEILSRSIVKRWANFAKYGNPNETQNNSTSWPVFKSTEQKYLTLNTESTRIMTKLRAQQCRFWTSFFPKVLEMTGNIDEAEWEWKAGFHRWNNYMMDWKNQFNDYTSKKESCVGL
The series is described as follows: Anti-BChE assay, Ellman method. It is filed as biochemical. The method, then:
as §1
(DTNB colorimetry detects thiols as they appear.)

Another series concerns Shigella flexneriae. The series is described as follows: microbe, parasite or virus in culture. It is filed as cell-based, Shigella flexneriae (AM-36282).
For the next series, the system named is Aspergillus flavus. The series is described as follows: microbe, parasite or virus in culture. Type of series: cell-based, Aspergillus flavus (ATCC-9807).
The next series has as its system Shigella boydii. The series is described as follows: microbe, parasite or virus in culture. Type of series: cell-based, Shigella boydii (AL-17313).
The subject of the next series is Shigella shiga. The series is described as follows: microbe, parasite or virus in culture. Type of series: cell-based, Shigella shiga (ATCC-26107). The note with it: for zone of inhibition at 400 µg/disc: Shigella.
In the next series the test system is Salmonella typhi. The series is described as follows: microbe, parasite or virus in culture. It is filed as cell-based, Salmonella typhi (ATCC-14028). The note with it: for zone of inhibition at 400 µg/disc: Salmonella enterica.
The next series has as its system Fusarium species. The series is described as follows: microbe, parasite or virus in culture. Type of series: cell-based.
Another series has as its system Pseudomonas aeruginosa. The series is described as follows: microbe, parasite or virus in culture. Type of series: cell-based, Pseudomonas aeruginosa (ATCC-27853).
The next series has as its system Bacillus megaterium. The series is described as follows: microbe, parasite or virus in culture. It is filed as cell-based, Bacillus megaterium (QL-38). The note with it: for zone of inhibition at 400 µg/disc: Priestia megaterium.
The test system of a further series is Sarcina lutea. The series is described as follows: microbe, parasite or virus in culture. Conditions: for zone of inhibition at 400 µg/disc: Micrococcus luteus. Type of series: cell-based, Sarcina lutea (QL-1660).
The nature of series [3]: Brine shrimp lethality bioassay (cytotoxicity). The note with it: Artemia salina (brine shrimp nauplii), in vivo.
The next series concerns Aspergillus niger. Type of series: cell-based, Aspergillus niger (ATCC-1204).
A further series deals with Shigella dysenteriae. The series is described as follows: microbe, parasite or virus in culture. Type of series: cell-based, Shigella dysenteriae (AL-35587).
The test system of the next series is Candida species. The series is described as follows: microbe, parasite or virus in culture. It is filed as cell-based.
The test system of the next series is Bacillus Subtilis. The series is described as follows: microbe, parasite or virus in culture. Type of series: cell-based, Bacillus subtilis (QL-40).
Series [4] in a line: Reducing power assay (antioxidant, Fe3+ to Fe2+). Conditions: at a concentration of 40 µg/mL, absorbance at 700 nm.
For another series, the system named is Strep-β-haemolyticus. The series is described as follows: organism not typed. It is filed as cell-based, Streptococcus-ß-haemolyticus (ATCC-10389).
In another series the test system is Klebsiella species. The series is described as follows: microbe, parasite or virus in culture. Type of series: cell-based.
The subject of the next series is Staphylococcus aureus. The series is described as follows: microbe, parasite or virus in culture. It is filed as cell-based, Staphylococcus aureus (ATCC-259233).
Series [5] concerns brine shrimp nauplii (Artemia salina Lech). The series is described as follows: Brine shrimp lethality bioassay (cytotoxicity). Conditions: brine shrimp lethality, 5–80 μg/mL.

The term zone of inhibition denotes the extent of the growth-free halo in a diffusion test. As a reminder, the IC50 is the point on the concentration scale where inhibition reaches its midpoint. By LC50 is commonly meant the concentration that kills 50% of the test population. Higher therefore signals a less lethal substance. For the molecule `C=C1C[C@@]23CCC4[C@](C)(C(=O)O)CCC[C@@]4(C)[C@@H]2CC[C@@H]1C3` (single isomer, unassigned; (-)) [Compound 2, (-) kaur-16-en-19-oic acid], the zone of inhibition at 400 µg/disc in the series with Escherichia coli (400 μg/disc) worked out at 16 mm; in the series with Shigella sonnei (400 μg/disc) it was 13 mm; with Shigella flexneriae (400 μg/disc) it was 13 mm; in the series on Aspergillus flavus (400μg/disc), 17 mm; in the series with Shigella boydii (400 μg/disc), 14 mm; in the series on Shigella shiga it was 15 mm. For the same molecule, the zone of inhibition at 400 µg/disc in the series with Salmonella typhi (400 μg/disc) was 15 mm; in the series on Fusarium species (400μg/disc) it was 11 mm; in the series with Pseudomonas aeruginosa (400 μg/disc), 16 mm; with Bacillus megaterium (400 μg/disc) it was 12 mm; in the series on Sarcina lutea (400 μg/disc) it was 16 mm; in the series on Shigella dysenteriae (400 μg/disc) it was 20 mm. Further, the zone of inhibition at 400 µg/disc with Candida species (400μg/disc) was found to be 13 mm; in the series on Bacillus Subtilis (400 μg/disc), 14 mm; in the series with Strep-β-haemolyticus (400 μg/disc) it was 18 mm; in the series on Klebsiella species (400 μg/disc), 17 mm; in the series with Staphylococcus aureus (400 μg/disc), 13 mm. Moreover, the IC50 in series [1] was 115 µM; in [2], 111 µM. In series [3], the LC50 at 24 h came out at 16.2 ± 1.11 µg/mL (≈ 53.5 µM). Further, in the series with Aspergillus niger (400μg/disc), the “Zone of Inhibition” value is “−”. For the same molecule, in series [4], the “absorbance (reducing power)” value was 1.26.

Regarding `C[C@@]12CCC[C@@](C)(C(=O)O)[C@H]1CC[C@@]13C[C@@H](CC[C@H]12)[C@](C)(O)C3` [Compound 1, (-) kaur-16α-hydroxy-19-oic acid], the zone of inhibition at 400 µg/disc in the series with Escherichia coli (400 μg/disc) was found to be 14 mm; with Shigella sonnei (400 μg/disc), 15 mm; in the series on Shigella flexneriae (400 μg/disc), 12 mm; in the series with Aspergillus flavus (400μg/disc) it was 14 mm; with Shigella boydii (400 μg/disc), 13 mm; in the series on Shigella shiga it was 14 mm. Further, the zone of inhibition at 400 µg/disc in the series with Salmonella typhi (400 μg/disc) turned out to be 13 mm; in the series on Fusarium species (400μg/disc), 12 mm; with Pseudomonas aeruginosa (400 μg/disc), 15 mm; with Bacillus megaterium (400 μg/disc), 14 mm; with Sarcina lutea (400 μg/disc) it was 17 mm; in the series on Shigella dysenteriae (400 μg/disc), 19 mm. Moreover, the zone of inhibition at 400 µg/disc is 13 mm in the series on Bacillus Subtilis (400 μg/disc), 17 mm with Strep-β-haemolyticus (400 μg/disc), 15 mm in the series on Klebsiella species (400 μg/disc) and 23 mm with Staphylococcus aureus (400 μg/disc). In addition, the IC50 was 152 µM in series [1] (mean ± SD (n = 3), read-out: IC50, inhibition of acetylcholinesterase (AChE) (converted)) and 145 µM in [2] (mean ± SD (n = 3), read-out: IC50, inhibition of butyrylcholinesterase (BChE) (converted)). Also, the LC50 at 24 h in [3] came out at 12.4 ± 0.87 µg/mL (≈ 38.8 µM). The “Zone of Inhibition” value in the series on Aspergillus niger (400μg/disc) was “−”; in the series on Candida species (400μg/disc), “inactive and −”. In addition, the “absorbance (reducing power)” value in series [4] amounted to 1.55.

For `CC[C@H](CC[C@@H](C)[C@H]1CC[C@H]2[C@@H]3CC=C4C[C@@H](O)CC[C@]4(C)[C@H]3CC[C@]12C)C(C)C` [Compound 3, β-sitosterol], the “Zone of Inhibition” value in the series on Escherichia coli (400 μg/disc), in the series with Shigella sonnei (400 μg/disc), with Shigella flexneriae (400 μg/disc), in the series on Aspergillus flavus (400μg/disc), in the series with Shigella boydii (400 μg/disc) and in the series with Shigella shiga was “−” each time. Further, the “Zone of Inhibition” value in the series with Salmonella typhi (400 μg/disc), with Fusarium species (400μg/disc), with Pseudomonas aeruginosa (400 μg/disc), in the series with Bacillus megaterium (400 μg/disc), with Sarcina lutea (400 μg/disc) and with Aspergillus niger (400μg/disc) was “−” throughout. For the same molecule, the “Zone of Inhibition” value in the series with Shigella dysenteriae (400 μg/disc), in the series with Candida species (400μg/disc), with Bacillus Subtilis (400 μg/disc), with Strep-β-haemolyticus (400 μg/disc), in the series on Klebsiella species (400 μg/disc) and in the series with Staphylococcus aureus (400 μg/disc) was “−” each time. The IC50 in [1] is 107 µM; in series [2] it was 104 µM. In addition, the “cytotoxic effects (in words)” value in series [5] is listed as “All the compounds except 3 showed significant cytotoxic effects”.

Consider `CC(C)C=CC[C@@H](C)[C@H]1CC[C@H]2[C@@H]3CC=C4CC(O)CC[C@]4(C)[C@H]3CC[C@]12C` (some centres unmarked) [Compound 4, cholesta-5,23-dien-3-ol], for which the zone of inhibition at 400 µg/disc in the series on Escherichia coli (400 μg/disc) was 13 mm; in the series with Shigella sonnei (400 μg/disc), 12 mm; with Shigella flexneriae (400 μg/disc) it was 11 mm; in the series with Shigella boydii (400 μg/disc), 10 mm; with Shigella shiga, 14 mm; in the series with Salmonella typhi (400 μg/disc), 10 mm. Further, the zone of inhibition at 400 µg/disc in the series on Pseudomonas aeruginosa (400 μg/disc) amounted to 12 mm; in the series with Bacillus megaterium (400 μg/disc) it was 12 mm; in the series with Sarcina lutea (400 μg/disc), 13 mm; in the series with Shigella dysenteriae (400 μg/disc), 13 mm; with Bacillus Subtilis (400 μg/disc) it was 12 mm; in the series with Strep-β-haemolyticus (400 μg/disc), 12 mm. Besides, the values for the zone of inhibition at 400 µg/disc in the series with Klebsiella species (400 μg/disc) and in the series on Staphylococcus aureus (400 μg/disc) were 13 mm and 9 mm, respectively. Moreover, the figures for the IC50 in [1] and in series [2] were 117 µM and 124 µM, respectively. Moreover, the “Zone of Inhibition” value in the series with Aspergillus flavus (400μg/disc), in the series with Fusarium species (400μg/disc), in the series with Aspergillus niger (400μg/disc) and in the series with Candida species (400μg/disc) was “−” throughout. In [3], the LC50 at 24 h amounted to 14.3 ± 0.87 µg/mL (≈ 37.1 µM). For the same molecule, in [4], the “absorbance (reducing power)” value turned out to be 1.89.

With `NC[C@H]1O[C@H](O[C@H]2[C@H](O)[C@@H](O[C@H]3O[C@H](CO)[C@@H](O)[C@H](N)[C@H]3O)[C@H](N)C[C@@H]2N)[C@H](O)[C@@H](O)[C@@H]1O` [Std. Kan, kanamycin, reference compound], the “Zone of Inhibition” value with Escherichia coli (30 μg/disc) stood at 27 mm; with Shigella sonnei (30 μg/disc) it was 31 mm; in the series on Shigella flexneriae (30 μg/disc), 27 mm; with Shigella boydii (30 μg/disc) it was 31 mm; in the series on Shigella shiga it was 31 mm; in the series with Salmonella typhi (30 μg/disc), 28 mm. For the same molecule, the “Zone of Inhibition” value in the series with Pseudomonas aeruginosa (30 μg/disc) came to 31 mm; in the series with Bacillus megaterium (30 μg/disc), 27 mm; in the series on Sarcina lutea (30 μg/disc), 29 mm; in the series with Shigella dysenteriae (30 μg/disc) it was 32 mm; in the series on Bacillus Subtilis (30 μg/disc), 24 mm; in the series with Strep-β-haemolyticus (30 μg/disc), 27 mm. The “Zone of Inhibition” value in the series on Klebsiella species (30 μg/disc) worked out at 28 mm; in the series with Staphylococcus aureus (30 μg/disc) it was 33 mm.

Consider `C[C@@H]1[C@H](O)[C@@H](C)/C=C/C=C/CC/C=C/C=C/C=C/C=C/C(O[C@H]2O[C@H](C)[C@@H](O)[C@H](N)[C@@H]2O)CC2O[C@](O)(CC(O)C(O)CCC(O)CC(O)CC(O)CC(=O)O[C@H]1C)CC(O)C2C(=O)O` (some centres unmarked) [Std. Nystatin, nystatin, reference compound], for which the “Zone of Inhibition” value with Aspergillus flavus (50 μg/disc) came to 30 mm; in the series with Fusarium species (50 μg/disc) it was 26 mm; with Aspergillus niger (50 μg/disc), 29 mm; in the series with Candida species (50 μg/disc), 28 mm.

Regarding `CC[C@]1(O)C[C@H]2CN(CCc3c([nH]c4ccccc34)[C@@](C(=O)OC)(c3cc4c(cc3OC)N(C=O)[C@H]3[C@@](O)(C(=O)OC)[C@H](OC(C)=O)[C@]5(CC)C=CCN6CC[C@]43[C@@H]65)C2)C1` [Vincristine, vincristine, reference compound], the LC50 at 24 h in [3] amounted to 3.48 ± 0.36 µg/mL (≈ 4.22 µM).

Consider `O.Oc1cc(O)c2c(c1)O[C@H](c1ccc(O)c(O)c1)[C@@H](O)C2` [catechin, reference compound], for which the “absorbance (reducing power)” value in [4] came to 2.14.
